Test results as given in patent US11542259B2, “Compounds for the treatment of kinase-dependent disorders” (Exelixis, Inc., priority 2018, dated 2023).

How the values were obtained:
AXL = AXL (Homo sapiens (Human), UniProt P30530); test: AXL autophosphorylation ELISA in A-172 cells; type: cell-based; conditions: cellular, Gas6 stimulated
Summary of the method: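 Serum-starved (24 h) A-172 glioblastoma cells pretreated 1 h with compounds (8-point curve, 0.3% DMSO), then stimulated 15 min with 1 μg/mL Gas6. Lysate phospho-AXL measured by sandwich ELISA against a phospho-AXL standard; IC50 from 4-parameter logistic fit between DMSO and reference-inhibitor controls.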

[1] = biological target: Human Mer (residues R557-E882 with H628Q and R794A) (Homo sapiens (Human), UniProt Q12866); test: Human Mer kinase assay (33P radiometric, KinaseProfiler); type: biochemical; conditions: 10 μM ATP
KDR = KDR (Homo sapiens (Human), UniProt P35968); test: KDR autophosphorylation ELISA in HUVEC cells; type: cell-based; conditions: cellular, VEGF165 stimulated
Summary of the method: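 HUVEC, 24 h serum-free starvation; cpd 8-pt dilution, 0.3% DMSO final, 1 h; VEGF165 100 ng/mL, 5 min; cold lysis; phospho-KDR ELISA; IC50, 4PL.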

Sequence of KDR (P35968 20-1356): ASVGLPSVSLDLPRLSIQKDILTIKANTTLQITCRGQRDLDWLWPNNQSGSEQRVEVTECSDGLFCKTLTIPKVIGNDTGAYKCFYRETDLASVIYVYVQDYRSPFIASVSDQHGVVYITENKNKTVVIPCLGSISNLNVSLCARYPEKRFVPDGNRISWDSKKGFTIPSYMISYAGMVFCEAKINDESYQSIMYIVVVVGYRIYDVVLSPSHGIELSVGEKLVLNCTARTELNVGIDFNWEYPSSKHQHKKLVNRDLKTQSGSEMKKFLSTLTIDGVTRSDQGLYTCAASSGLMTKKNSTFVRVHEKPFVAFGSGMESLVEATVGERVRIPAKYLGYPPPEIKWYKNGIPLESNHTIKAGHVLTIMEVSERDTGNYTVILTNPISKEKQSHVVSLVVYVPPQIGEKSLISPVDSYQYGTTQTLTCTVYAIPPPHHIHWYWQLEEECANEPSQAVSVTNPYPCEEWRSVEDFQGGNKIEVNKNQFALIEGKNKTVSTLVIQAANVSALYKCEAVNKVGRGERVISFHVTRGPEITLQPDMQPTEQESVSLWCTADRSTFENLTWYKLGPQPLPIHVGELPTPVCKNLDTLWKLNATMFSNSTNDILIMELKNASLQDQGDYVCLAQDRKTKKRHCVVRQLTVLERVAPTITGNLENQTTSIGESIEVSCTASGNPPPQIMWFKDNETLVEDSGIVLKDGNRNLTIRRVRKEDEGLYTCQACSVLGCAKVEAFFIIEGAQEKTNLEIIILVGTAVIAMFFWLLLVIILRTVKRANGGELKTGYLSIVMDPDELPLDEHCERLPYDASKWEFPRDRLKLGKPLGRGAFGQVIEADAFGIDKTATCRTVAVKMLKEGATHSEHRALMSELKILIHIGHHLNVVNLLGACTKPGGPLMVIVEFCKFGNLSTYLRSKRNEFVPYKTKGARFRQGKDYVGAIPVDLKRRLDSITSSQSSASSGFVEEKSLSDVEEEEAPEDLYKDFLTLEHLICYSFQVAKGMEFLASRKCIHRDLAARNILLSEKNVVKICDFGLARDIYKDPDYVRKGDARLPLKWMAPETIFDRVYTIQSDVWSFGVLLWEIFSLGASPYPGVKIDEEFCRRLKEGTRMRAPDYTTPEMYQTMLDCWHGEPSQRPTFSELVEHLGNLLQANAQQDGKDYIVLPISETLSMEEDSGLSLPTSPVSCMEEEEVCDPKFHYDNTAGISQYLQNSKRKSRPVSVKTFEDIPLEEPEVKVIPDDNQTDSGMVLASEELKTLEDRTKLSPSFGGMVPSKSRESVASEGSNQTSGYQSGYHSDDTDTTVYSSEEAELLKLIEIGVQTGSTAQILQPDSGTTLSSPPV
Sequence of Human Mer (residues R557-E882 with H628Q and R794A) (Q12866 557-882, stated change not applied): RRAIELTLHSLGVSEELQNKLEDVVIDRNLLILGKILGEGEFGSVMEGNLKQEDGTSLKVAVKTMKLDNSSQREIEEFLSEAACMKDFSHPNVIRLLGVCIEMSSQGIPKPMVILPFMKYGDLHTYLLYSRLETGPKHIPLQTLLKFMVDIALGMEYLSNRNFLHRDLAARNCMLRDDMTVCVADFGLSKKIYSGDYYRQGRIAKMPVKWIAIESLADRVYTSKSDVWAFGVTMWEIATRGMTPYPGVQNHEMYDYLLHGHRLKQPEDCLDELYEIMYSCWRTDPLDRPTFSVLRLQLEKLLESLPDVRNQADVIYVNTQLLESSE
Sequence of AXL (P30530 26-894): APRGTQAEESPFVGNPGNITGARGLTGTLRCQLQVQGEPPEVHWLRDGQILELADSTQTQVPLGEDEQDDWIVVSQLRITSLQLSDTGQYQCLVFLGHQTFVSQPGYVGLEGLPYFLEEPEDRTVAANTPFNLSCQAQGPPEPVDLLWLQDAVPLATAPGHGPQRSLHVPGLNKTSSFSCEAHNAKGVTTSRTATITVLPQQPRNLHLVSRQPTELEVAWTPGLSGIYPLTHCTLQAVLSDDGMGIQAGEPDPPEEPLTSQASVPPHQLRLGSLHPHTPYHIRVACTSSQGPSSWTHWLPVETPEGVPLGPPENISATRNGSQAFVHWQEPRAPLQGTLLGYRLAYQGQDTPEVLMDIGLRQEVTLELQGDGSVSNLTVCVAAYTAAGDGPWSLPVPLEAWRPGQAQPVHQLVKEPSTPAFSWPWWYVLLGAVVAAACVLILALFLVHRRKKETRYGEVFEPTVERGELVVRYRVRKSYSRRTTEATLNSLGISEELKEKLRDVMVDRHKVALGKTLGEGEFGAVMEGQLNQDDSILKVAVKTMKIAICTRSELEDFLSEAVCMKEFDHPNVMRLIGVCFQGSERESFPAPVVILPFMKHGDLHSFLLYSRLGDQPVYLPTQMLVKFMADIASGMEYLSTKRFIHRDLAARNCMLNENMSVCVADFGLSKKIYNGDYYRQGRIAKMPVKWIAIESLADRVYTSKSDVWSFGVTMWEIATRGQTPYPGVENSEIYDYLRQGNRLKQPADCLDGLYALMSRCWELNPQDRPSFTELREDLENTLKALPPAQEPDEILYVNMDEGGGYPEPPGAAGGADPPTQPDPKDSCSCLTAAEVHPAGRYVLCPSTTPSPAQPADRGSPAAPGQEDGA

With `COc1cc2nccc(Oc3ccc(NC(=O)C4(C(=O)Nc5ccc(F)cc5)CC4)cc3F)c2cc1C(=O)O` [Compound 131, 4-[2-fluoro-4-[[1-[(4-fluorophenyl)carbamoyl]cyclopropanecarbonyl]amino]phenoxy]-7-methoxyquinoline-6-carboxylic acid] the IC50 (AXL) was greater than 300 nM, the IC50 [1] was 10 to 100 nM and the IC50 (KDR) was greater than 300 nM.
`CNC(=O)c1cc2c(Oc3ccc(NC(=O)C4(C(=O)Nc5ccc(F)cc5)CC4)cc3F)ccnc2cc1OC` [Compound 135, 1-N′-[3-fluoro-4-[7-methoxy-6-(methylcarbamoyl)quinolin-4-yl]oxyphenyl]-1-N-(4-fluorophenyl)cyclopropane-1,1-dicarboxamide] gave an IC50 (AXL) of no more than 10 nM, an IC50 [1] of no more than 10 nM and an IC50 (KDR) of no more than 10 nM.
In the case of `COc1cc2nccc(Oc3ccc(NC(=O)C4(C(=O)Nc5ccc(F)cc5)CC4)cc3)c2cc1-c1cnn(C)c1` [Compound 182, 1-N′-(4-fluorophenyl)-1-N-[4-[7-methoxy-6-(1-methylpyrazol-4-yl)quinolin-4-yl]oxyphenyl]cyclopropane-1,1-dicarboxamide], the IC50 (AXL) is reported as no more than 10 nM, the IC50 [1] is reported as no more than 10 nM and the IC50 (KDR) is reported as no more than 10 nM.
`COc1cc2nccc(Oc3ccc(NC(=O)C4(C(=O)Nc5ccc(F)cc5)CC4)cc3)c2cc1-c1ncco1` [Compound 45, 1-N′-(4-fluorophenyl)-1-N-[4-[7-methoxy-6-(1,3-oxazol-2-yl)quinolin-4-yl]oxyphenyl]cyclopropane-1,1-dicarboxamide] was tested, and the IC50 (AXL) was no more than 10 nM, the IC50 [1] was no more than 10 nM and the IC50 (KDR) was no more than 10 nM.
`COC(=O)c1cc2nccc(Oc3ccc(NC(=O)C4(C(=O)Nc5ccc(F)cc5)CC4)cc3)c2cc1OC` [Compound 150, methyl 4-[4-[[1-[(4-fluorophenyl)carbamoyl]cyclopropanecarbonyl]amino]phenoxy]-6-methoxyquinoline-7-carboxylate] gave an IC50 (AXL) of 10 to 100 nM, an IC50 [1] of no more than 10 nM and an IC50 (KDR) of no more than 10 nM.
For `COC(=O)c1cc2nccc(Oc3ccc(NC(=O)C4(C(=O)Nc5ccc(F)cc5)CC4)cc3)c2cc1C` [Compound 140, methyl 4-[4-[[1-[(4-fluorophenyl)carbamoyl]cyclopropanecarbonyl]amino]phenoxy]-6-methylquinoline-7-carboxylate], the IC50 (AXL) was 10 to 100 nM, the IC50 [1] was no more than 10 nM and the IC50 (KDR) was 10 to 100 nM.
Work on `CNC(=O)c1ccc2c(Oc3ccc(NC(=O)C4(C(=O)Nc5ccc(F)cc5)CC4)cc3)ccnc2c1` [Compound 165, 1-N′-(4-fluorophenyl)-1-N-[4-[7-(methylcarbamoyl)quinolin-4-yl]oxyphenyl]cyclopropane-1,1-dicarboxamide] yielded an IC50 (AXL) of 10 to 100 nM, an IC50 [1] of no more than 10 nM and an IC50 (KDR) of no more than 10 nM.
For `COC(=O)c1cc2c(Oc3ccc(NC(=O)C4(C(=O)Nc5ccc(F)cc5)CC4)cc3F)ccnc2cc1OC` [Compound 129, methyl 4-[2-fluoro-4-[[1-[(4-fluorophenyl)carbamoyl]cyclopropanecarbonyl]amino]phenoxy]-7-methoxyquinoline-6-carboxylate], the IC50 (AXL) was no more than 10 nM, the IC50 [1] was no more than 10 nM and the IC50 (KDR) was no more than 10 nM.
Compound `COc1cc2nccc(Oc3ccc(NC(=O)C4(C(=O)Nc5ccc(F)cc5)CC4)cc3)c2cc1C#N` [Compound 37, 1-N-[4-(6-cyano-7-methoxyquinolin-4-yl)oxyphenyl]-1-N′-(4-fluorophenyl)cyclopropane-1,1-dicarboxamide] has an IC50 (AXL) of 10 to 100 nM, an IC50 [1] of no more than 10 nM and an IC50 (KDR) of 10 to 100 nM.
`CN1CC(NC(=O)c2ccc3nccc(Oc4ccc(NC(=O)C5(C(=O)Nc6ccc(F)cc6)CC5)cc4)c3c2)C1` [Compound 60, 1-N′-(4-fluorophenyl)-1-N-[4-[6-[(1-methylazetidin-3-yl)carbamoyl]quinolin-4-yl]oxyphenyl]cyclopropane-1,1-dicarboxamide] was tested, and the IC50 (AXL) was 100 to 300 nM, the IC50 [1] was 10 to 100 nM and the IC50 (KDR) was greater than 300 nM.
`CNC(=O)c1ccc2nccc(Oc3ccc(NC(=O)C4(C(=O)Nc5ccc(F)cc5)CC4)cc3)c2c1` [Compound 59, 1-N′-(4-fluorophenyl)-1-N-[4-[6-(methylcarbamoyl)quinolin-4-yl]oxyphenyl]cyclopropane-1,1-dicarboxamide] gave an IC50 (AXL) of 100 to 300 nM, an IC50 [1] of 10 to 100 nM and an IC50 (KDR) of 100 to 300 nM.
With `COc1cc2nccc(Oc3ccc(NC(=O)C4(C(=O)Nc5ccc(F)cc5)CC4)cc3)c2cc1C(N)=O` [Compound 7, 1-N-[4-(6-carbamoyl-7-methoxyquinolin-4-yl)oxyphenyl]-1-N′-(4-fluorophenyl)cyclopropane-1,1-dicarboxamide] the IC50 (AXL) was no more than 10 nM, the IC50 [1] was no more than 10 nM and the IC50 (KDR) was no more than 10 nM.
`CNC(=O)c1cc2c(Oc3ccc(NC(=O)C4(C(=O)Nc5ccc(F)cc5)CC4)cc3)ccnc2cc1OC` [Compound 8, 1-N′-(4-fluorophenyl)-1-N-[4-[7-methoxy-6-(methylcarbamoyl)quinolin-4-yl]oxyphenyl]cyclopropane-1,1-dicarboxamide] showed an IC50 (AXL) of no more than 10 nM, an IC50 [1] of no more than 10 nM and an IC50 (KDR) of no more than 10 nM.
With `COc1cc2c(Oc3ccc(NC(=O)C4(C(=O)Nc5ccc(F)cc5)CC4)cc3)ccnc2cc1C(N)=O` [Compound 152, 1-N-[4-(7-carbamoyl-6-methoxyquinolin-4-yl)oxyphenyl]-1-N′-(4-fluorophenyl)cyclopropane-1,1-dicarboxamide] the IC50 (AXL) was 10 to 100 nM, the IC50 [1] was no more than 10 nM and the IC50 (KDR) was 100 to 300 nM.
`COC(=O)c1ccc2c(Oc3ccc(NC(=O)C4(C(=O)Nc5ccc(F)cc5)CC4)cc3)ccnc2c1` [Compound 162, methyl 4-[4-[[1-[(4-fluorophenyl)carbamoyl]cyclopropanecarbonyl]amino]phenoxy]quinoline-7-carboxylate] was tested, and the IC50 (AXL) was greater than 300 nM, the IC50 [1] was no more than 10 nM and the IC50 (KDR) was 10 to 100 nM.
